# Source: the kinase profiling compilation of Christmann-Franck et al. (2016)
# Assays:
# Assay in all cases: radiometric filter-binding kinase assay
# [1] = system: AKT2 (human), P31751 [S474D]
# AURKB (human) = AURKB (human) (UniProt Q96GD4)
# CAMKK2 (human) = CAMKK2 (human) (UniProt Q96RR4)
# CHEK1 (human) = CHEK1 (human) (UniProt O14757)
# CHEK2 (human) = CHEK2 (human) (UniProt O96017)
# EPHB4 (human) = EPHB4 (human) (UniProt P54760)
# GCK (human) = GCK (human) (UniProt Q12851)
# IGF1R (human) = IGF1R (human) (UniProt P08069)
# IKBKB (human) = IKBKB (human) (UniProt O14920)
# MAP2K1 (human) = MAP2K1 (human) (UniProt Q02750)
# MAP3K1 (human) = MAP3K1 (human) (UniProt Q13233)
# MAPK1 (human) = MAPK1 (human) (UniProt P28482)
# MAPK10 (human) = MAPK10 (human) (UniProt P53779)
# MAPK15 (human) = MAPK15 (human) (UniProt Q8TD08)
# MAPK3 (human) = MAPK3 (human) (UniProt P27361)
# MAPK9 (human) = MAPK9 (human) (UniProt P45984)
# MAPKAPK2 (human) = MAPKAPK2 (human) (UniProt P49137)
# MARK2 (human) = MARK2 (human) (UniProt Q7KZI7)
# MINK1 (human) = MINK1 (human) (UniProt Q8N4C8)
# MKNK1 (human) = MKNK1 (human) (UniProt Q9BUB5)
# MKNK2 (human) = MKNK2 (human) (UniProt Q9HBH9)
# NEK2 (human) = NEK2 (human) (UniProt P51955)
# NTRK1 (human) = NTRK1 (human) (UniProt P04629)
# PHKG1 (human) = PHKG1 (human) (UniProt Q16816)
# PIM2 (human) = PIM2 (human) (UniProt Q9P1W9)
# PKN2 (human) = PKN2 (human) (UniProt Q16513)
# PRKAA1 or PRKAA2 (rat) = conditions: accession and sequence are those of the human protein
# PRKACA (human) = PRKACA (human) (UniProt P17612)
# PRKCA (human) = PRKCA (human) (UniProt P17252)
# RPS6KA1 KD1 KD2 (human) = RPS6KA1 KD1 KD2 (human) (UniProt Q15418)
# SRC (human) = SRC (human) (UniProt P12931)
# [2] = target: STK11 CAB39 STRADA (human) (UniProt Q9Y376+Q7RTN6+Q15831)
# STK3 (human) = STK3 (human) (UniProt Q13188)
# YES1 (human) = YES1 (human) (UniProt P07947)
# YES1 (human), sequence (P07947 whole entry, looked up): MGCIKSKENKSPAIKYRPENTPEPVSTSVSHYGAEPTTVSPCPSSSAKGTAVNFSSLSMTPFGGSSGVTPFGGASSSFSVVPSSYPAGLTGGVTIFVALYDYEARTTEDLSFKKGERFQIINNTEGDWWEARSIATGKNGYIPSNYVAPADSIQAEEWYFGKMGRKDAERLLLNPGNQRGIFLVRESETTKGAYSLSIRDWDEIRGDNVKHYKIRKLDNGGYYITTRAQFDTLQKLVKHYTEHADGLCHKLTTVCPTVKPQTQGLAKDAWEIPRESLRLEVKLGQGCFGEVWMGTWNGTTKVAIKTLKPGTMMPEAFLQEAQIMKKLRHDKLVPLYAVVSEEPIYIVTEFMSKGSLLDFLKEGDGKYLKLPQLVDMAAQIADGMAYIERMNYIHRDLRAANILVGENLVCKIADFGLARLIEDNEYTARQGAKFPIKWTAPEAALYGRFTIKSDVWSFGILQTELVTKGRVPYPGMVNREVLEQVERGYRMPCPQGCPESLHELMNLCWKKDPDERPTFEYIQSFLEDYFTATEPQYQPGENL
# MKNK2 (human), sequence (Q9HBH9 whole entry, looked up): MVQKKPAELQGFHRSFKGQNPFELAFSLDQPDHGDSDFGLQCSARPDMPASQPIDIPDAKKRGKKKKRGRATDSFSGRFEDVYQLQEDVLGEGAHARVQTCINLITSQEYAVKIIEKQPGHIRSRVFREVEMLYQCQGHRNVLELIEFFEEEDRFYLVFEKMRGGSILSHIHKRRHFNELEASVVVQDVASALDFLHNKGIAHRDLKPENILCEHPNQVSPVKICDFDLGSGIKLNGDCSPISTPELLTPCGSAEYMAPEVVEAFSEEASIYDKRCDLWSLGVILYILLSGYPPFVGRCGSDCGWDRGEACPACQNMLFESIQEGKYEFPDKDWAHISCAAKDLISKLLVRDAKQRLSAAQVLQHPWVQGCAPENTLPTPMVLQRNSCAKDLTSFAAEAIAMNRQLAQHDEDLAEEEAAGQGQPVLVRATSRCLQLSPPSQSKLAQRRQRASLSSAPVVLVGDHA
# IKBKB (human), sequence (O14920 whole entry, looked up): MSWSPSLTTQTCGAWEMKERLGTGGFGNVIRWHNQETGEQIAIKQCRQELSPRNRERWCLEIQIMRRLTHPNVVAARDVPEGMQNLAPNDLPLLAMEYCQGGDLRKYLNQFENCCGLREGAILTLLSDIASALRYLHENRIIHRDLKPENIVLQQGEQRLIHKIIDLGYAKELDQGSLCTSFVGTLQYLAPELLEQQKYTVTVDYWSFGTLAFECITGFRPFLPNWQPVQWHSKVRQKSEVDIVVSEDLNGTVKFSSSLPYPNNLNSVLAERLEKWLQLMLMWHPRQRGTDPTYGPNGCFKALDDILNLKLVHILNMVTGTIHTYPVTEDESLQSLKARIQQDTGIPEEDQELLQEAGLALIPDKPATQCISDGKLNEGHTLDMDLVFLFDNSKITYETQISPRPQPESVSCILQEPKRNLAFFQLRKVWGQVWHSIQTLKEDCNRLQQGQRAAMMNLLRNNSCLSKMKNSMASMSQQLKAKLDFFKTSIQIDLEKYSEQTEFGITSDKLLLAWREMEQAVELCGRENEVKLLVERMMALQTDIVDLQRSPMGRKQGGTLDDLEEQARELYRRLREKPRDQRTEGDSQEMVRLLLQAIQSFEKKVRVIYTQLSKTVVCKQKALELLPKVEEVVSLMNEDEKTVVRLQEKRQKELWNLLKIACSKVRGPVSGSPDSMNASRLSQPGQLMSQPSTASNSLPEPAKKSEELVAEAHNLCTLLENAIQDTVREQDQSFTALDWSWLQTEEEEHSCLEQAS
# MAPK1 (human), sequence (P28482 whole entry, looked up): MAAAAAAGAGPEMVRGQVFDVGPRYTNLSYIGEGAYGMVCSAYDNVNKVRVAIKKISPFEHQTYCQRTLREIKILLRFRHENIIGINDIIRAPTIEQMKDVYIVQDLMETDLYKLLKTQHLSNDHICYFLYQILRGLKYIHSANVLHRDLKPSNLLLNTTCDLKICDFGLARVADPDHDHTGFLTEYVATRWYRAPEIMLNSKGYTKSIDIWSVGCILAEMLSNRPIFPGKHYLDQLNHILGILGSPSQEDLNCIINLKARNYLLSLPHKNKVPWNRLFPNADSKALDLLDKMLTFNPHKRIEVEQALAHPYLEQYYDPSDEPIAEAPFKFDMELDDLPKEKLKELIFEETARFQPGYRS
# CAMKK2 (human), sequence (Q96RR4 whole entry, looked up): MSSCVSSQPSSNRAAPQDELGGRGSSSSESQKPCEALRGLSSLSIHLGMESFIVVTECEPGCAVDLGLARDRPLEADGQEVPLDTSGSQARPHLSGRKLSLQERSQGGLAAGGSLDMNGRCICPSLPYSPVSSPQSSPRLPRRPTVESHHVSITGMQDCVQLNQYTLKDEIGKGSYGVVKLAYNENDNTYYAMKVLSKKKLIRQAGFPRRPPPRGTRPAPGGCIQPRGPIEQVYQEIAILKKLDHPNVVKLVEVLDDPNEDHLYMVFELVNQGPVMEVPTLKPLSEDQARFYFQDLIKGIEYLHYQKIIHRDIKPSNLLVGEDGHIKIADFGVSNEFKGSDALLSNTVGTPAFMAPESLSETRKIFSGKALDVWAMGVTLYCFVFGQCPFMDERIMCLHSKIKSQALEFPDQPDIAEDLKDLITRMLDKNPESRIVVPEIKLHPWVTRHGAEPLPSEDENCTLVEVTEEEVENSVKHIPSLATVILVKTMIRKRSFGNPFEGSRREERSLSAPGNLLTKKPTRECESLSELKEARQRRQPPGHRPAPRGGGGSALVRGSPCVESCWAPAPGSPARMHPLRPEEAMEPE
# PKN2 (human), sequence (Q16513 whole entry, looked up): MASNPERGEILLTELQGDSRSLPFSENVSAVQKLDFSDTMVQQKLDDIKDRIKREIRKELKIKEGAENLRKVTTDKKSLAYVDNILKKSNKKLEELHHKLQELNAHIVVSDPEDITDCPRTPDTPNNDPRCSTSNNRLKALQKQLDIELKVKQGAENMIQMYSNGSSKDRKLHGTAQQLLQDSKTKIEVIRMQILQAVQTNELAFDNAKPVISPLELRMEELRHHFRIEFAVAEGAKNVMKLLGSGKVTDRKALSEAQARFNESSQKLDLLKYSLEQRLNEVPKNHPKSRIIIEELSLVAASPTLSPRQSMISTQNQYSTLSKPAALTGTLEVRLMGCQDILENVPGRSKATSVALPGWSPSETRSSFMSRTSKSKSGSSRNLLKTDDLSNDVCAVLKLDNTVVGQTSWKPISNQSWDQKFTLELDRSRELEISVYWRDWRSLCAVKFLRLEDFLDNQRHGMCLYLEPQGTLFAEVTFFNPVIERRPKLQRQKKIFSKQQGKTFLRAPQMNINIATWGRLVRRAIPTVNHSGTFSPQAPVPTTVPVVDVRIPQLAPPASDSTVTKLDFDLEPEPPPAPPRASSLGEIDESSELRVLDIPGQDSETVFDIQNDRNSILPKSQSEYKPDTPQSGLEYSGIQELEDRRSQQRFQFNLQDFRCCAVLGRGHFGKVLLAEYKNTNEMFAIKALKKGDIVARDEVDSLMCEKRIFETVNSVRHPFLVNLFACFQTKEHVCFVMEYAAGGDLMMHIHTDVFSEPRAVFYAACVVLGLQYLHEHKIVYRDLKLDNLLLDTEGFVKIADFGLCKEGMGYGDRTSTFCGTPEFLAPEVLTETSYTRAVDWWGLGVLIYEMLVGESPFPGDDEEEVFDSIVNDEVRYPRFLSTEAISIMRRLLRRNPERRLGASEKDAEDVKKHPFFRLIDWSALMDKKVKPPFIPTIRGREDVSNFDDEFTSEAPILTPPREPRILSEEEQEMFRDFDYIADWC
# PHKG1 (human), sequence (Q16816 whole entry, looked up): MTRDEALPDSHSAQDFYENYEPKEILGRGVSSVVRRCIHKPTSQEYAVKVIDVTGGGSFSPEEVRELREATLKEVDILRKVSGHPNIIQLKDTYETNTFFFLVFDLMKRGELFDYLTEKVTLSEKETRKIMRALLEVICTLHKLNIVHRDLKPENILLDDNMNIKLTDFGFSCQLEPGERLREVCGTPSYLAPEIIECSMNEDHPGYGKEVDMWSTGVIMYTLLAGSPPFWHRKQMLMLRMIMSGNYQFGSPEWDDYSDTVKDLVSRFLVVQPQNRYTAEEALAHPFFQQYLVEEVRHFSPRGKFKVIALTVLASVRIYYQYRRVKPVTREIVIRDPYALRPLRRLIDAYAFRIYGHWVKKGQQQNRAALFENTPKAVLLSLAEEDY
smiles,measurement,setting,value
NC(=O)c1cc2c(-c3cccc(-c4ccccc4)c3)cnc(N)c2s1,residual activity,[1]; compound 0.1 µM,94%
same,residual activity,[1]; compound 1.0 µM,88%
same,residual activity,[1]; compound 10.0 µM,98%
same,residual activity,AURKB (human); compound 0.1 µM,110%
same,residual activity,AURKB (human); compound 1.0 µM,96%
same,residual activity,AURKB (human); compound 10.0 µM,43%
same,residual activity,CAMKK2 (human); compound 0.1 µM,99%
same,residual activity,CAMKK2 (human); compound 1.0 µM,61%
same,residual activity,CAMKK2 (human); compound 10.0 µM,30%
same,residual activity,CHEK1 (human); compound 0.1 µM,100%
same,residual activity,CHEK1 (human); compound 1.0 µM,64%
same,residual activity,CHEK1 (human); compound 10.0 µM,29%
same,residual activity,CHEK2 (human); compound 0.1 µM,104%
same,residual activity,CHEK2 (human); compound 1.0 µM,37%
same,residual activity,CHEK2 (human); compound 10.0 µM,18%
same,residual activity,EPHB4 (human); compound 0.1 µM,107%
same,residual activity,EPHB4 (human); compound 1.0 µM,76%
same,residual activity,EPHB4 (human); compound 10.0 µM,19%
same,residual activity,GCK (human); compound 0.1 µM,7%
same,residual activity,GCK (human); compound 1.0 µM,6%
same,residual activity,GCK (human); compound 10.0 µM,5%
same,residual activity,IGF1R (human); compound 0.1 µM,113%
same,residual activity,IGF1R (human); compound 1.0 µM,87%
same,residual activity,IGF1R (human); compound 10.0 µM,13%
same,residual activity,IKBKB (human); compound 0.1 µM,96%
same,residual activity,IKBKB (human); compound 1.0 µM,81%
same,residual activity,IKBKB (human); compound 10.0 µM,65%
same,residual activity,MAP2K1 (human); compound 0.1 µM,90%
same,residual activity,MAP2K1 (human); compound 1.0 µM,86%
same,residual activity,MAP2K1 (human); compound 10.0 µM,17%
same,residual activity,MAP3K1 (human); compound 0.1 µM,108%
same,residual activity,MAP3K1 (human); compound 1.0 µM,73%
same,residual activity,MAP3K1 (human); compound 10.0 µM,30%
same,residual activity,MAPK1 (human); compound 0.1 µM,81%
same,residual activity,MAPK1 (human); compound 1.0 µM,35%
same,residual activity,MAPK1 (human); compound 10.0 µM,6%
same,residual activity,MAPK10 (human); compound 0.1 µM,97%
same,residual activity,MAPK10 (human); compound 10.0 µM,46%
same,residual activity,MAPK15 (human); compound 0.1 µM,99%
same,residual activity,MAPK15 (human); compound 1.0 µM,50%
same,residual activity,MAPK15 (human); compound 10.0 µM,23%
same,residual activity,MAPK3 (human); compound 1.0 µM,58%
same,residual activity,MAPK3 (human); compound 10.0 µM,16%
same,residual activity,MAPK9 (human); compound 0.1 µM,107%
same,residual activity,MAPK9 (human); compound 1.0 µM,82%
same,residual activity,MAPK9 (human); compound 10.0 µM,33%
same,residual activity,MAPKAPK2 (human); compound 0.1 µM,102%
same,residual activity,MAPKAPK2 (human); compound 1.0 µM,101%
same,residual activity,MAPKAPK2 (human); compound 10.0 µM,94%
same,residual activity,MARK2 (human); compound 0.1 µM,103%
same,residual activity,MARK2 (human); compound 1.0 µM,65%
same,residual activity,MARK2 (human); compound 10.0 µM,28%
same,residual activity,MINK1 (human); compound 0.1 µM,58%
same,residual activity,MINK1 (human); compound 1.0 µM,12%
same,residual activity,MINK1 (human); compound 10.0 µM,4%
same,residual activity,MKNK1 (human); compound 0.1 µM,107%
same,residual activity,MKNK1 (human); compound 1.0 µM,114%
same,residual activity,MKNK1 (human); compound 10.0 µM,99%
same,residual activity,MKNK2 (human); compound 1.0 µM,91%
same,residual activity,MKNK2 (human); compound 10.0 µM,66%
same,residual activity,NEK2 (human); compound 0.1 µM,88%
same,residual activity,NEK2 (human); compound 1.0 µM,74%
same,residual activity,NEK2 (human); compound 10.0 µM,44%
same,residual activity,NTRK1 (human); compound 0.1 µM,92%
same,residual activity,NTRK1 (human); compound 1.0 µM,73%
same,residual activity,NTRK1 (human); compound 10.0 µM,28%
same,residual activity,PHKG1 (human); compound 0.1 µM,104%
same,residual activity,PHKG1 (human); compound 1.0 µM,92%
same,residual activity,PHKG1 (human); compound 10.0 µM,55%
same,residual activity,PIM2 (human); compound 0.1 µM,98%
same,residual activity,PIM2 (human); compound 1.0 µM,95%
same,residual activity,PIM2 (human); compound 10.0 µM,81%
same,residual activity,PKN2 (human); compound 0.1 µM,100%
same,residual activity,PKN2 (human); compound 1.0 µM,76%
same,residual activity,PKN2 (human); compound 10.0 µM,29%
same,residual activity,PRKAA1 or PRKAA2 (rat); compound 0.1 µM,99%
same,residual activity,PRKAA1 or PRKAA2 (rat); compound 1.0 µM,95%
same,residual activity,PRKAA1 or PRKAA2 (rat); compound 10.0 µM,68%
same,residual activity,PRKACA (human); compound 0.1 µM,80%
same,residual activity,PRKACA (human); compound 1.0 µM,103%
same,residual activity,PRKACA (human); compound 10.0 µM,96%
same,residual activity,PRKCA (human); compound 0.1 µM,94%
same,residual activity,PRKCA (human); compound 1.0 µM,64%
same,residual activity,PRKCA (human); compound 10.0 µM,18%
same,residual activity,RPS6KA1 KD1 KD2 (human); compound 0.1 µM,92%
same,residual activity,RPS6KA1 KD1 KD2 (human); compound 1.0 µM,65%
same,residual activity,RPS6KA1 KD1 KD2 (human); compound 10.0 µM,31%
same,residual activity,SRC (human); compound 0.1 µM,100%
same,residual activity,SRC (human); compound 1.0 µM,89%
same,residual activity,SRC (human); compound 10.0 µM,108%
same,residual activity,[2]; compound 0.1 µM,105%
same,residual activity,[2]; compound 1.0 µM,57%
same,residual activity,[2]; compound 10.0 µM,23%
same,residual activity,STK3 (human); compound 0.1 µM,108%
same,residual activity,STK3 (human); compound 1.0 µM,59%
same,residual activity,STK3 (human); compound 10.0 µM,21%
same,residual activity,YES1 (human); compound 1.0 µM,66%
same,residual activity,YES1 (human); compound 10.0 µM,13%
